According to patent US7355079B2, “Thyronamine derivatives and analogs and methods of use thereof” (The Regents of the University of California, priority 2003, dated 2008):
“Also recorded” adds a separate entry of the source.

Assays:
[1] = biological target: T1, rat trace amine receptor (rTAR-1) (Rattus norvegicus, UniProt Q923Y9); assay: cAMP accumulation in HEK cells stably expressing rTAR-1; assay type: cell-based
T1 construct: expressed in transfected cells
Procedure: To test this, the synthetic iodo-thyronamines were assayed for their ability to stimulate cAMP accumulation in human embryonic kidney (HEK) cells stably expressing rTAR-1, as well as cells transfected with an empty vector. […] To address the issue of receptor selectivity, all of the iodo-thyronamines were tested for their ability to activate the dopamine receptors and the β-adrenergic receptors.
(§1) cAMP Assay. HEK293 cells were harvested in Krebs-Ringer-HEPES buffer (KRH) and preincubated in KRH with 200 μM 3-isobutyl-methylxanthine. For drug treatments cells were incubated in KRH with 100 μM 3-isobutyl-1-methylxanthine with the test compound (or 10 μM forskolin) for 1 hour at 37° C. The cells were then boiled for 20 minutes after adding an equal volume of 0.5 mM sodium acetate buffer, centrifuged to remove cell debris, and the resulting extract was analyzed for cAMP content using competitive binding of [^3H]cAMP to a cAMP binding protein (Diagnostic Products Corp., Los Angeles, Calif.). Data were normalized according to protein content as determined using the Bradford reagent (Bio-Rad). Concentration-response curves were plotted and EC50 values calculated with Prism software (GraphPad, San Diego, Calif.).

mouse TAR-1 = biological target: T2, mouse TAR-1 (Mus musculus, UniProt Q923Y8); assay: cAMP assay, activation of mouse TAR-1; assay type: cell-based
T2 construct: expressed in transfected cells
Procedure: as §1

C57Bl/6J mice [2] = assay: core body temperature of mice injected intraperitoneally or intracerebrally; assay type: in vivo; details: mouse, intraperitoneal or intracerebral injection
Procedure: Eight week old male C57 Black 6J (C57Bl/6J) mice were injected intraperitoneally (i.p.) with the indicated dose of 3-iodothyronamine (T1AM) dissolved in 60% DMSO and normal saline (pH 7.4). Mice were injected intraperitoneally with a dose of T1AM at 18.75, 37.5, or 75 mg/kg body weight. Core body temperature was measured as rectal temperature every 30 minutes for the first 2 hours and then again at 3, 4, and 24 hours post injection. The core body temperature response (with standard error) to each dose reflects the response of 7-8 mice in a room maintained at 24° C.
Core body temperature response was measured in an adult male C57Bl/6J mouse injected intraperitoneally with a dose of T1AM at 100 mg/kg T1AM. The mouse was implanted with a telemetry-emitting temperature sensing probe for more accurate measurement of core body temperature.
Thermal response was measured in an adult male C57Bl/6J mouse to a unilateral intracerebroventricular injection of T1AM dissolved in 60% DMSO/40% normal saline at a dose of 6.6 mg/kg body weight. The mouse was instrumented with a telemetry-emitting temperature sensing probe.

C57Bl/6J mice [3] = assay: heart rate and blood pressure responses in mice; assay type: in vivo; details: mouse, i.p. approximately 75-80 mg/kg
Procedure: Heart rate and blood pressure responses were measured in an adult male C57Bl/6J mouse injected intraperitoneally with T1AM in 60% DMSO/40% normal saline at a dose of approximately 75-80 mg/kg body weight in two replicate experiments.
Heart rate and blood pressure responses were measured in two drug naive adult male C57Bl/6J mouse following intraperitoneal injection of T1AM at a dose of approximately 75 mg/kg body weight.

C57Bl/6J mice [4] = assay: blood glucose levels of mice injected intraperitoneally; assay type: in vivo, mouse; details: 50 mg/kg
Procedure: (BTC; ambient temperature −31° C.).

mice = assay: responses of mice within minutes of T1AM injection; assay type: in vivo, mouse
From the text: (§2) One of the most consistent clinical findings in individuals with severe hypothyroidism is depression. […] The underlying mechanism of this potentiation remains to be elucidated. Other physiological manifestations of depression that may also have a TH component include thermoregulatory disturbances, decreased metabolic rate, decreased cardiorespiratory fitness, inactivity, and hyperglycemia. Recently we discovered 3-iodothyronamine (T1AM), a novel endogenous metabolite of TH (Scanlan et al., Nature Medicine 10:638, 2004) that is a potent agonist of rodent and human G protein-coupled trace amine associated receptors (Lindemann et al., Genomics 85:372, 2005).

[5] = tested on: ex vivo rat heart preparation; assay: ex vivo rat heart preparation, cardiac output
From the text: as §2

i.v. serum half-life = details: iv

T1 sequence (Q923Y9 whole entry): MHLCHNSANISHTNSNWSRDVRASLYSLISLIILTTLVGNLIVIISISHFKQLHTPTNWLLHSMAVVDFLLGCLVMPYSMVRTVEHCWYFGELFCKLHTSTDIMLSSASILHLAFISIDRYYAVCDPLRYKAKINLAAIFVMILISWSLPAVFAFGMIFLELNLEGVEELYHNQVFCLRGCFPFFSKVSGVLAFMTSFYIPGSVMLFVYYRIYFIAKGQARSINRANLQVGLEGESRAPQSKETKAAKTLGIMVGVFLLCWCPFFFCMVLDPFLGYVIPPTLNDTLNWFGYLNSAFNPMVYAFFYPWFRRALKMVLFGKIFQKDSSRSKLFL
T2 sequence (Q923Y8 whole entry): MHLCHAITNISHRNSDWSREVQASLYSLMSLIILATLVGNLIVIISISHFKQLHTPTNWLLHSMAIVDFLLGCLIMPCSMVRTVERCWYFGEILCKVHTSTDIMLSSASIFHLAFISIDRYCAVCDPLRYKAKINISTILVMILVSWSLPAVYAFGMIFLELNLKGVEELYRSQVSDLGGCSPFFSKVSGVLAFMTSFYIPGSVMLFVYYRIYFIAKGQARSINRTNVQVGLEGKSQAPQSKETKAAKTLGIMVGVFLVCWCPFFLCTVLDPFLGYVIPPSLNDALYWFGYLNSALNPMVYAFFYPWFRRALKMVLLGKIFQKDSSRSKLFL

SMILES: Cl.NCCc1ccc(Oc2ccc(O)cc2)c(I)c1 [Compound T1AM, 3-iodothyronamine Hydrochloride]
- EC50 [1]: 14 nM
- binding to the TAR receptor using a cAMP assay [1]: high affinity
- increase in agonist potency for rTAR-1 relative to T0AM ([1]; addition of a single iodine atom to the 3-position of T0AM): ~10 fold
- EC50 (mouse TAR-1): 112 nM
- core body temperature after injection (decrease from approximately 38° C.) (C57Bl/6J mice [2]): approximately 29 °C
- period of decreased core body temperature (C57Bl/6J mice [2]): 6.5 to 8 h
- heart rate throughout the treatment period (C57Bl/6J mice [3]): remained constant
- blood pressure (C57Bl/6J mice [3]; Hydrochloride): varied with the drop in body core temperature, but recovered to normal levels; also recorded: varied with the drop in body core temperature, but returned to normal levels
- hyperglycemia when body temperature is held constant (C57Bl/6J mice [4]; body temperature near 37° C. (BTC; ambient temperature ~31° C.)): still significant, but the effect is smaller in magnitude
- blood glucose levels (C57Bl/6J mice [4]; i.p., room temperature (21° C.-22° C.), Hydrochloride): increase blood glucose levels; also recorded: significant increase in blood sugar levels
- response of mice within minutes of injection (mice): reduction in their metabolic rate, body temperature, locomotor activity, and heart rate while blood glucose becomes elevated
- cardiac output [5]: rapidly reduce cardiac output
- half-life (i.v. serum half-life): 120 to 150 min
